Source: article PMC10929621, “An Engineered Biarylitide Cross-Linking P450 from RiPP Biosynthesis Generates Alternative Cyclic Peptides” (Organic Letters, 2024)

System: Blt-M1 (P450Blt A231V-H234L)
Assay: Deuterium loss on cyclization by Blt-M1
Format: biochemical, Micromonospora sp. MW-13
Conditions: deuterium at C2 of His-3, HRMS
Protocol: Finally, we sought to clarify the nature of the cross-link within 5 formed by Blt-M1 as no equivalent cross-linked tripeptide natural product has been identified. Scaled enzymatic cyclization of Nle-2 (N-terminal Met residue was replaced with norleucine (Nle) to avoid sulfoxidation due to the release of reactive oxygen intermediates during catalysis) and purification of Nle-5 were then performed. […] We turned to the use of peptide deuteration to resolve this cross-link, which based on WT biarylitide reactivity could be either C–C or C–N. This required synthesis and turnover of a deuterated version of Nle-2 with deuterium at C2 of the His-3 residue (Nle-2^3d).[17] […]
The UV-visible spectra of the P450 enzymes were obtained using a Jasco V-750 spectrophotometer as has been previously reported.1 The spectra were measured until it reached a stable peak. CO difference spectra were obtained using a Jasco V-750 spectrophotometer at 30 °C as has been previously described.1 The UV-vis spectra were measured between 390–600 nm every 5 mins until the spectra was stable.1, 4 Substrate interaction with the P450s was measured using UV-visible absorbance spectroscopy carried out on a Jasco V-750 spectrophotometer according to previously reported protocol.1 Amplitudes of the different spectra were extrapolated (ΔA = Amax - Amin) and plotted against the substrate concentration. […]

NleRHLY (sidechain bridge or staple) [Nle-5, cross-linked peptide from enzymatic cyclization of Nle-2 by Blt-M1]
loss of deuterium upon cyclization: loss of deuterium
